Biological target: T1, glucocorticoid receptor (Homo sapiens, UniProt P04150)
T1 construct: expressed in transfected cells
T1 sequence (P04150 524-758 limits assumed): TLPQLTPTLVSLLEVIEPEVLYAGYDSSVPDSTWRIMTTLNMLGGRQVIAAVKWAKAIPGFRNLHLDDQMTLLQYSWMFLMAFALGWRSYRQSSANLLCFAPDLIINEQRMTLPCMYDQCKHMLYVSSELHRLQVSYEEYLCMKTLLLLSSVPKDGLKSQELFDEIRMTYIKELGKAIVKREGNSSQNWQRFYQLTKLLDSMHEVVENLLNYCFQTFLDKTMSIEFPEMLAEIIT
Experiment: Agonistic mode of action on the glucocorticoid receptor (CHO-Gal4/GR luciferase reporter cell line)
Format: cell-based
Conditions: range class observed in the agonistic assay or the antagonistic assay (CHO-Gal4/GR reporter cells); table does not say which mode applies per example
How it was run: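 CHO cells stably carrying GAL4 DBD–GR ligand-binding-domain fusion and GAL4-UAS firefly luciferase reporter, 5000 cells/well grown 24 h, then compounds added in Opti-MEM at 8 half-log concentrations from 10 μM to 0.003 μM (0.5% DMSO), quadruplicates. Agonist-induced luminescence read on FLIPR Tetra; EC50 calculated.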

IC50 or EC50 (agonist or antagonist mode not specified)	SMILES
100 to 1000 nM	Cc1nnc2n1-c1c(cc(F)c(-c3cccc4c3ccn4CC(F)F)c1F)NC2(C)C [Example 253, 8-[1-(2,2-Difluoro-ethyl)-1H-indol-4-yl]-7,9-difluoro-1,4,4-trimethyl-5H-[1,2,4]triazolo[4,3-a]quinoxaline]
100 to 1000 nM	Cc1c[nH]c2c(-c3c(C(F)F)cc4c(c3F)-n3c(C)nnc3C(C)(C)N4)cc(F)cc12 [Example 296, 7-(Difluoro-methyl)-9-fluoro-8-(5-fluoro-3-methyl-1H-indol-7-yl)-1,4,4-trimethyl-5H-[1,2,4]triazolo[4,3-a]quinoxaline]
1000 to 15000 nM	COCCn1ccc2c(-c3c(OC)cc4c(c3F)-n3c(C)nnc3C(C)(C)N4)cccc21 [Example 288, 9-Fluoro-7-methoxy-8-[1-(2-methoxy-ethyl)-1H-indol-4-yl]-1,4,4-trimethyl-5H-[1,2,4]triazolo[4,3-a]quinoxaline]
100 to 1000 nM	COCCn1ccc2c(-c3c(Cl)cc4c(c3F)-n3c(C)nnc3C(C)(C)N4)cc(F)cc21 [Example 404, 7-Chloro-9-fluoro-8-[6-fluoro-1-(2-methoxy-ethyl)-1H-indol-4-yl]-1,4,4-trimethyl-5H-[1,2,4]triazolo[4,3-a]quinoxaline]
100 to 1000 nM	Cc1nnc2n1-c1c(cc(F)c(-c3cccc4c3cnn4S(=O)(=O)CC3CC3)c1F)NC2(C)C [Example 239, 8-[1-(Cyclopropyl-methylsulfonyl)-1H-indazol-4-yl]-7,9-difluoro-1,4,4-trimethyl-5H-[1,2,4]triazolo[4,3-a]quinoxaline]
100 to 1000 nM	COc1cc2c(c(C(F)(F)F)c1-c1cccc3c1ccn3S(C)(=O)=O)-n1c(C)nnc1C(C)(C)N2 [Example 310, 7-Methoxy-1,4,4-trimethyl-8-(1-methylsulfonyl-1H-indol-4-yl)-9-(trifluoromethyl)-5H-[1,2,4]triazolo[4,3-a]quinoxaline]
1000 to 15000 nM	CCc1nnc2n1-c1c(cc(F)c(-c3cc(F)cc4c(C#N)c[nH]c34)c1F)NC2(C)C [Example 15, 7-(1-ethyl-7,9-difluoro-4,4-dimethyl-4,5-dihydro-[1,2,4]triazolo[4,3-a]quinoxalin-8-yl)-5-fluoro-1H-indole-3-carbonitrile]
< 100 nM	COc1cc2c(c(C(F)(F)F)c1-c1cc(F)cc3c(C4CC4)c[nH]c13)-n1c(C)nnc1C(C)(C)N2 [Example 482, 8-(3-Cyclopropyl-5-fluoro-1H-indol-7-yl)-7-methoxy-1,4,4-trimethyl-9-(trifluoromethyl)-5H-[1,2,4]triazolo[4,3-a]quinoxaline]
100 to 1000 nM	Cc1nnc2n1-c1c(cc(F)c(-c3cccc4c3ccn4S(C)(=O)=O)c1C(F)F)NC2(C)C [Example 315, 9-(Difluoro-methyl)-7-fluoro-1,4,4-trimethyl-8-(1-methylsulfonyl-1H-indol-4-yl)-5H-[1,2,4]triazolo[4,3-a]quinoxaline]
< 100 nM	Cc1c(-c2cc(F)cc3c2ccn3S(C)(=O)=O)ccc2c1-n1c(C)nnc1C(C)(C)N2 [Example 453, 8-(6-Fluoro-1-methylsulfonyl-1H-indol-4-yl)-1,4,4,9-tetramethyl-5H-[1,2,4]triazolo[4,3-a]quinoxaline]

Second part, the compound before the results:

SMILES	IC50 or EC50 (agonist or antagonist mode not specified)
Cc1nnc2n1-c1c(cc(F)c(-c3cc(F)cc4c3ccn4C3CC3)c1C(F)(F)F)NC2(C)C [Example 88, 8-(1-Cyclopropyl-6-fluoro-1H-indol-4-yl)-7-fluoro-1,4,4-trimethyl-9-(trifluoromethyl)-5H-[1,2,4]triazolo[4,3-a]quinoxaline]	< 100 nM
Cc1cc2c(c(C)c1-c1cccc3c1ccn3S(C)(=O)=O)-n1c(C)nnc1C(C)(C)N2 [Example 309, 1,4,4,7,9-Pentamethyl-8-(1-methylsulfonyl-1H-indol-4-yl)-5H-[1,2,4]triazolo[4,3-a]quinoxaline]	< 100 nM
COc1cc2c(c(F)c1-c1cccc3c(C)c[nH]c13)-n1c(C)nnc1C(C)(C)N2 [Example 266, 9-Fluoro-7-methoxy-1,4,4-trimethyl-8-(3-methyl-1H-indol-7-yl)-5H-[1,2,4]triazolo[4,3-a]quinoxaline]	100 to 1000 nM
Cc1c(-c2cc(F)cc3c(C4CC4)c[nH]c23)c(Cl)cc2c1-n1c(C)nnc1C(C)(C)N2 [Example 485, 7-Chloro-8-(3-cyclopropyl-5-fluoro-1H-indol-7-yl)-1,4,4,9-tetramethyl-5H-[1,2,4]triazolo [4,3-a]quinoxaline]	< 100 nM
Cc1nnc2n1-c1c(cc(F)c(-c3cccc4c3ccn4S(=O)(=O)C(C)C)c1C(F)F)NC2(C)C [Example 400, 9-(Difluoro-methyl)-7-fluoro-8-[1-(isopropylsulfonyl)-1H-indol-4-yl]-1,4,4-trimethyl-5H-[1,2,4]triazolo [4,3-a]quinoxaline]	1000 to 15000 nM
Cc1c(-c2cc(F)cc3c2ccn3S(C)(=O)=O)c(OC(F)F)cc2c1-n1c(C)nnc1C(C)(C)N2 [Example 335, 7-(Difluoro-methoxy)-8-(6-fluoro-1-methylsulfonyl-1H-indol-4-yl)-1,4,4,9-tetramethyl-5H-[1,2,4] triazolo[4,3-a]quinoxaline]	100 to 1000 nM
Cc1nnc2n1-c1c(cc(C(F)F)c(-c3cc(F)cc4c3ccn4CCO)c1F)NC2(C)C [Example 385, 2-[4-[7-(Difluoro-methyl)-9-fluoro-1,4,4-trimethyl-5H-[1,2,4]triazolo [4,3-a]quinoxalin-8-yl]-6-fluoro-1H-indol-1-yl]-ethanol]	1000 to 15000 nM
Cc1c(-c2cccc3c(C)c[nH]c23)c(OC(F)F)cc2c1-n1c(C)nnc1C(C)(C)N2 [Example 360, 7-(Difluoro-methoxy)-1,4,4,9-tetramethyl-8-(3-methyl-1H-indol-7-yl)-5H-[1,2,4]triazolo[4,3-a]quinoxaline]	100 to 1000 nM
COCCn1ccc2c(-c3c(C)cc4c(c3C)-n3c(C)nnc3C(C)(C)N4)cccc21 [Example 331, 8-[1-(2-Methoxy-ethyl)-1H-indol-4-yl]-1,4,4,7,9-pentamethyl-5H-[1,2,4]triazolo[4,3-a]quinoxaline]	1000 to 15000 nM
COCC(=O)n1ccc2c(-c3c(F)cc4c(c3F)-n3c(C)nnc3C(C)(C)N4)cccc21 [Example 213, 1-[4-(7,9-Difluoro-1,4,4-trimethyl-5H-[1,2,4]triazolo[4,3-a]quinoxalin-8-yl)-1H-indol-1-yl]-2-methoxy-ethanone]	< 100 nM
Cc1n[nH]c2c(-c3c(F)cc4c(c3C(F)F)-n3c(C)nnc3C(C)(C)N4)cccc12 [Example 367, 9-(Difluoro-methyl)-7-fluoro-1,4,4-trimethyl-8-(3-methyl-1H-indazol-7-yl)-5H-[1,2,4]triazolo[4,3-a]quinoxaline]	100 to 1000 nM
Cc1nnc2n1-c1c(cc(F)c(-c3ccc(F)c4[nH]ccc34)c1C(F)F)NC2(C)C [Example 496, 9-(Difluoro-methyl)-7-fluoro-8-(7-fluoro-1H-indol-4-yl)-1,4,4-trimethyl-5H-[1,2,4]triazolo[4,3-a] quinoxaline]	< 100 nM

— US12110293B2, “Substituted triazolo quinoxaline derivatives” (GRÜNENTHAL GMBH, priority 2018, dated 2024)
